This is an account of results in ChEMBL document CHEMBL1129489.

The target in experiment [1] is D(1A) dopamine receptor (Rattus norvegicus) (UniProt P18901). Description: (§1) Low-affinity agonist dissociation constant against striatal Dopamine receptor D1A. It counts as functional.
The target in experiment [2] is D(2) dopamine receptor (Rattus norvegicus) (UniProt P61169).
Experiment [3] has as its target D(1A) dopamine receptor (Homo sapiens) (UniProt P21728). Described as §1. It counts as functional.
The target is the same in experiment [4]. The following applies: COS-7.
Experiment [5] shares this target.
For experiment [6] the target is unchanged. The following applies: COS-7. This is another data set of the same source.
Experiment [7] deals with D(2) dopamine receptor (Homo sapiens) (UniProt P14416).
Chain of D(2) dopamine receptor (Homo sapiens) (P14416 whole entry): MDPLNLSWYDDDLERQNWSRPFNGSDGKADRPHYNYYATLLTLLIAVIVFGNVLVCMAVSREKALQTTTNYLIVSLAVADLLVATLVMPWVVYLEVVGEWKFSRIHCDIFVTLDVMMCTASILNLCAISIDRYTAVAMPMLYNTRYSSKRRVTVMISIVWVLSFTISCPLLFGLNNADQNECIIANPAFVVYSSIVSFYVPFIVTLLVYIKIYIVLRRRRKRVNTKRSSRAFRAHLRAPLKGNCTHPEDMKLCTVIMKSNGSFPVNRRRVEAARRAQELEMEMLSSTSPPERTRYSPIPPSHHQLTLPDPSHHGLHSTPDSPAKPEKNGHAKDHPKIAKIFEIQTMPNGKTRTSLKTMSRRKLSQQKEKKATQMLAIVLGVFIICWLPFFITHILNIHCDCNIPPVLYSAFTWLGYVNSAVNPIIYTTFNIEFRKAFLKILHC
For experiment [8], the target named is D(1A) dopamine receptor (Homo sapiens) (UniProt P21728). This is another data set of the same source.
Chain of D(1A) dopamine receptor (Homo sapiens) (P21728 whole entry): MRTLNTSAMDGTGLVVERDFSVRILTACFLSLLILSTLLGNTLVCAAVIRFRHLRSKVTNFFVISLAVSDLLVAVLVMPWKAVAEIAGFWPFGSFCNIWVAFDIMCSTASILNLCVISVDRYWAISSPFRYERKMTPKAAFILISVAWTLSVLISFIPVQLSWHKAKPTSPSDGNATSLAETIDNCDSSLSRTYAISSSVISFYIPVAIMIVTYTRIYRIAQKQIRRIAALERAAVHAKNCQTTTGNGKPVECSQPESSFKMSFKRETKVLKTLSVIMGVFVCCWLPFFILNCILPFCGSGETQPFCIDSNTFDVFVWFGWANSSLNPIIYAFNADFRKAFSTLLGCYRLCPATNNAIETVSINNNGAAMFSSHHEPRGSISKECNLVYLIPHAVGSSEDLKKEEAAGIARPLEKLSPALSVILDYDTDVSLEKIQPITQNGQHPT

Chain of D(2) dopamine receptor (Rattus norvegicus) (P61169 whole entry): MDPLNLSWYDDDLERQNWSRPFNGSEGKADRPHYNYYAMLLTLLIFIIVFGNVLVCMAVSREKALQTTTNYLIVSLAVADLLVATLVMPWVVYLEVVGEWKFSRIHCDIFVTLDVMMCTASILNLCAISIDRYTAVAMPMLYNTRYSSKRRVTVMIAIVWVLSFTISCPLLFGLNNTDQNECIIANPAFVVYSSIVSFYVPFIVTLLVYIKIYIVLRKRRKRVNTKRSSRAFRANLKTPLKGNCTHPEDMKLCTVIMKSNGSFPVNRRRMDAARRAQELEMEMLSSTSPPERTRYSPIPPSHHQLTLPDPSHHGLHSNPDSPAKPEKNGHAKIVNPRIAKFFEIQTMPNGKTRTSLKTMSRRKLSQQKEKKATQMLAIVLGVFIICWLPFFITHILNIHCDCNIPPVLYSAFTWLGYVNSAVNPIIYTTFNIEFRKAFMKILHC
Chain of D(1A) dopamine receptor (Rattus norvegicus) (P18901 whole entry): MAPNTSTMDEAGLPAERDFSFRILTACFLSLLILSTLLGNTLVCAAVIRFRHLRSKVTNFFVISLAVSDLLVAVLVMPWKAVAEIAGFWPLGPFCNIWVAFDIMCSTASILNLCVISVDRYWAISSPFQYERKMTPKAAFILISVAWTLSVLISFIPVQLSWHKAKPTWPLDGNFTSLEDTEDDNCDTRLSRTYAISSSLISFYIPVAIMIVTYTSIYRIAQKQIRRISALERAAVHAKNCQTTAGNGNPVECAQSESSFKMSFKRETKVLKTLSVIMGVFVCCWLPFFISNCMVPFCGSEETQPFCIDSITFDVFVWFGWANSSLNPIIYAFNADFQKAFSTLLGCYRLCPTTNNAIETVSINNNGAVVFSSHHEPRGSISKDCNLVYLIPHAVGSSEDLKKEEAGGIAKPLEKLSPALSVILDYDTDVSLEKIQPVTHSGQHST

On to `CNC[C@H](O)c1ccc(O)c(O)c1`, for which the KL in experiment [1] was found to be 980 nM; in experiment [2] it was 128 µM. `Oc1cc2c(cc1O)[C@@H](c1ccccc1)CNCC2`: the KL in experiment [1] turned out to be 381 nM. Take `CCCN1CCc2cccc3c2[C@@H]1Cc1ccc(O)c(O)c1-3`: in experiment [3], the KL is 5.2 µM. Take `NC[C@H](O)c1ccc(O)c(O)c1`: the KL in experiment [1] came to 4140 nM; in experiment [2], 126 µM. In experiment [4], this compound had a Log 1/Kd of 4.69. For the compound `Oc1ccc(C2CNCCc3c2cc(O)c(O)c3Cl)cc1` (stereo unspecified), the figures for the KL in experiment [1] and in experiment [2] were 21 nM and 1 µM, respectively.

`NCCc1ccc(O)c(O)c1` registered a KL in experiment [1] of 580 nM. In the case of `CCCN1CCc2cccc3c2[C@H]1Cc1ccc(O)c(O)c1-3`, the values for the KL in experiment [1] and in experiment [2] were 625 nM and 0.023 µM, respectively. In experiment [1], `Oc1ccc([C@@H]2CNCCc3c2cc(O)c(O)c3Cl)cc1` displayed a KL of 1340 nM. Regarding `CN(C)C1CCc2cc(O)c(O)cc2C1` (stereo unspecified), the KL in experiment [1] turned out to be 734 nM; in experiment [2] it was 0.463 µM. As to `C=CCN1CCc2c(cc(O)c(O)c2Cl)[C@@H](c2ccccc2)C1`, the KL in experiment [5] stood at 83 nM. Also, in experiment [6], the Log 1/KL is -1.92. As for `NCCc1c[nH]c2ccc(O)cc12`, the KL in experiment [1] amounted to 6540 nM; in experiment [2], 183 µM.

As to `CN1CCc2cccc3c2[C@H]1Cc1ccc(O)c(O)c1-3`, the KL in experiment [7] was 127 nM; in experiment [8], 206 nM.
